System: human subjects with type 2 diabetes
Assay: Long-term randomised, double-blind, placebo-controlled cardiovascular outcomes trial with semaglutide
[1] = Table 4, coronary and peripheral, semaglutide arms
[2] = Table 4, individual component of MACE, semaglutide arms
[3] = Table 4, individual component of MACE, semaglutide vs placebo, Cox model
[4] = Table 4, MACE incl. revascularisation, hospitalisation for UAP and heart failure, semaglutide arms
[5] = Table 4, semaglutide vs placebo, Cox model
[6] = Table 5, under first MACE (CV death, non-fatal MI, non-fatal stroke), semaglutide arms
[7] = Table 5, MACE = cardiovascular death, non-fatal MI, non-fatal stroke, all subjects, semaglutide arms
[8] = Table 5 subgroup BMI >30 kg/m^2, semaglutide arms
[9] = Table 5 subgroup BMI ≤30 kg/m^2, semaglutide arms
[10] = Table 5 subgroup Ethnic origin: Asian, semaglutide arms
[11] = Table 5 subgroup Ethnic origin: Black or African-American, semaglutide arms
[12] = Table 5 subgroup Ethnic origin: Other, semaglutide arms
[13] = Table 5 subgroup Ethnic origin: White, semaglutide arms
[14] = Table 5 subgroup Heart failure NYHA class I or no heart failure, semaglutide arms
[15] = Table 5 subgroup Heart failure NYHA class II or III, semaglutide arms
[16] = Table 5 subgroup Sex: Female, semaglutide arms
[17] = Table 5 subgroup Sex: Male, semaglutide arms

Method: A long-term randomised, double-blind, placebo-controlled, four-armed parallel-group, multicentre, multi-national, safety and efficacy trial was carried out to evaluate cardiovascular and other long-term outcomes with semaglutide in 3,297 human subjects with type 2 diabetes.
The subjects were randomised to receive once weekly treatment doses of 0.5 mg semaglutide, 1.0 mg semaglutide, or volume-matched placebo, as an add-on to their standard-of-care treatment, wherein administration started with an initial dose escalation step at 0.25 mg semaglutide once weekly for 4 weeks, and for the 1.0 mg semaglutide group an additional 4 week period at 0.5 mg semaglutide once weekly, or their volume-matched placebo, as shown in Table 1. Additional glucose-lowering medications were allowed to be added to the anti-diabetic regimen to maintain target glycaemic control at the discretion of investigator.
Semaglutide was administered in the form of an aqueous solution comprising semaglutide or placebo, both using a 3 ml disposable pen-injector. This pen-injector was identical for the semaglutide and placebo administrations. This aqueous solution contained 1.34 mg/ml semaglutide, 1.42 mg/ml disodium phosphate dihydrate, 14.0 mg/ml propylene glycol, 5.5 mg/ml phenol, at pH 7.40.
Injections were administered in the thigh, abdomen or upper arm, at any time of day irrespective of meals. The injections were administered on the same day of the week during the trial.
In this trial, “clinical evidence of cardiovascular disease” was present when the subject fulfilled at least one criterion selected from the group consisting of a) to h): • a) prior myocardial infarction, • b) prior stroke or transient ischaemic attack, • c) prior coronary, carotid or peripheral arterial revascularisation, • d) >50% stenosis on angiography or imaging of coronary, carotid or lower extremity arteries, • e) history of symptomatic coronary heart disease (documented by e.g. positive exercise stress test or any cardiac imaging or unstable angina with ECG changes), • f) asymptomatic cardiac ischemia (e.g. documented by positive nuclear imaging test or exercise test or stress echo or any cardiac imaging), • g) heart failure New York Heart Association (NYHA) class and • h) chronic renal impairment (documented (prior to screening) by estimated glomerular filtration rate (eGFR)<60 mL/min/1.73 m^2 per MDRD).
In this trial, “subclinical evidence of cardiovascular disease” was present when the subject fulfilled at least one criterion selected from the group consisting of i) to l): • i) persistent microalbuminuria (30-299 mg/g) or proteinuria, • j) hypertension and left ventricular hypertrophy by ECG or imaging, • k) left ventricular systolic or diastolic dysfunction by imaging, and • l) ankle/brachial index<0.9.
The results of this trial may be presented herein as a number or fraction of subjects experiencing an event. […] The term “hazard ratio” (also referred to as “HR”) as used herein means the instantaneous risk ratio of experiencing an event when administered semaglutide compared to placebo which are the two treatments in this trial. An upper limit of the 95% confidence interval (CI) for the HR of less than 1.00 means that the estimated treatment ratio between semaglutide and placebo with respect to the event of interest is statistically significant in favour of semaglutide on a 5% significance level.

N^6.26-{18-[N-(17-carboxy-heptadecanoyl)-L-γ-glutamyl]-10-oxo-3,6,12,15-tetraoxa-9,18-diazaoctadecanoyl}-[8-(2-amino-2-propanoic acid),34-L-arginine]human glucagon-like peptide 1(7-37) [Semaglutide]
Time to first non-fatal myocardial infarction (Kaplan-Meier plot) (FIG. 1, after a certain period of chronic treatment, vs placebo): particularly good effect | Time to first revascularisation (Kaplan-Meier plot) (FIG. 2, after a certain period of chronic treatment, vs placebo): particularly good effect | Revascularisation, N subjects with at least one event [1]: 83 | Revascularisation, percentage of subjects with at least one event [1]: 5.0% | Revascularisation, hazard ratio (Table 4, coronary and peripheral, semaglutide vs placebo, Cox model): 0.65 | Cardiovascular death, N subjects with event [2]: 44 | Cardiovascular death, percentage of subjects with event [2]: 2.7% | Myocardial infarction, non-fatal, N subjects with at least one event [2]: 47 | Myocardial infarction, non-fatal, percentage of subjects with at least one event [2]: 2.9% | Stroke, non-fatal, N subjects with at least one event [2]: 27 | Stroke, non-fatal, percentage of subjects with at least one event [2]: 1.6% | Cardiovascular death, hazard ratio [3]: 0.98 | Myocardial infarction, non-fatal, hazard ratio [3]: 0.74 | Stroke, non-fatal, hazard ratio [3]: 0.61 | Time to first MACE, hazard ratio (Table 4, MACE = CV death, non-fatal MI, non-fatal stroke, revascularisation, hospitalisation for UAP or heart failure, semaglutide vs placebo, Cox model): 0.74 | First MACE, N subjects experiencing at least one event [4]: 199 | First MACE, percentage of subjects experiencing at least one event [4]: 12.1% | Coronary revascularisation, N subjects with at least one event (Table 4, semaglutide arms): 70 | Coronary revascularisation, percentage of subjects with at least one event (Table 4, semaglutide arms): 4.2% | Hospitalisation for UAP, N subjects with at least one event (Table 4, semaglutide arms): 22 | Hospitalisation for UAP, percentage of subjects with at least one event (Table 4, semaglutide arms): 1.3% | Hospitalisation for heart failure, N subjects with at least one event (Table 4, semaglutide arms): 59 | Hospitalisation for heart failure, percentage of subjects with at least one event (Table 4, semaglutide arms): 3.6% | Peripheral revascularisation, N subjects with at least one event (Table 4, semaglutide arms): 16 | Peripheral revascularisation, percentage of subjects with at least one event (Table 4, semaglutide arms): 1.0% | Coronary revascularisation, hazard ratio [5]: 0.68 | Hospitalisation for UAP, hazard ratio [5]: 0.82 | Hospitalisation for heart failure, hazard ratio [5]: 1.11 | Peripheral revascularisation, hazard ratio [5]: 0.63 | Cardiovascular death, N subjects [6]: 37 | Cardiovascular death, percentage of subjects [6]: 2.2% | Myocardial infarction, non-fatal, N subjects [6]: 46 | Myocardial infarction, non-fatal, percentage of subjects [6]: 2.8% | Stroke, non-fatal, N subjects [6]: 25 | Stroke, non-fatal, percentage of subjects [6]: 1.5% | First MACE, N subjects experiencing at least one event [7]: 108 | First MACE, percentage of subjects experiencing at least one event [7]: 6.6% | Time to first MACE, hazard ratio (Table 5, MACE = cardiovascular death, non-fatal MI, non-fatal stroke, all subjects, semaglutide vs placebo, Cox model): 0.74 | Time to first MACE, hazard ratio (Table 5 subgroup BMI >30 kg/m^2, MACE = CV death, non-fatal MI, non-fatal stroke, vs placebo): 0.84 | First MACE, N subjects with at least one event [8]: 69 | First MACE, percentage of subjects with at least one event [8]: 6.6% | Time to first MACE, hazard ratio (Table 5 subgroup BMI ≤30 kg/m^2, MACE = CV death, non-fatal MI, non-fatal stroke, vs placebo): 0.58 | First MACE, N subjects with at least one event [9]: 39 | First MACE, percentage of subjects with at least one event [9]: 6.6% | Time to first MACE, hazard ratio (Table 5 subgroup Ethnic origin: Asian, MACE = CV death, non-fatal MI, non-fatal stroke, vs placebo): 0.58 | First MACE, N subjects with at least one event [10]: 2 | First MACE, percentage of subjects with at least one event [10]: 5.7% | Time to first MACE, hazard ratio (Table 5 subgroup Ethnic origin: Black or African-American, MACE = CV death, non-fatal MI, non-fatal stroke, vs placebo): 0.72 | First MACE, N subjects with at least one event [11]: 5 | First MACE, percentage of subjects with at least one event [11]: 4.6% | Time to first MACE, hazard ratio (Table 5 subgroup Ethnic origin: Other, MACE = CV death, non-fatal MI, non-fatal stroke, vs placebo): 0.46 | First MACE, N subjects with at least one event [12]: 93 | First MACE, percentage of subjects with at least one event [12]: 6.7% | Time to first MACE, hazard ratio (Table 5 subgroup Ethnic origin: White, MACE = CV death, non-fatal MI, non-fatal stroke, vs placebo): 0.76 | First MACE, N subjects with at least one event [13]: 8 | First MACE, percentage of subjects with at least one event [13]: 6.6% | Time to first MACE, hazard ratio (Table 5 subgroup Heart failure NYHA class I or no heart failure, MACE = CV death, non-fatal MI, non-fatal stroke, vs placebo): 0.64 | First MACE, N subjects with at least one event [14]: 73 | First MACE, percentage of subjects with at least one event [14]: 5.4% | Time to first MACE, hazard ratio (Table 5 subgroup Heart failure NYHA class II or III, MACE = CV death, non-fatal MI, non-fatal stroke, vs placebo): 1.03 | First MACE, N subjects with at least one event [15]: 35 | First MACE, percentage of subjects with at least one event [15]: 12.3% | Time to first MACE, hazard ratio (Table 5 subgroup Sex: Female, MACE = CV death, non-fatal MI, non-fatal stroke, vs placebo): 0.84 | First MACE, N subjects with at least one event [16]: 35 | First MACE, percentage of subjects with at least one event [16]: 5.5% | Time to first MACE, hazard ratio (Table 5 subgroup Sex: Male, MACE = CV death, non-fatal MI, non-fatal stroke, vs placebo): 0.68 | First MACE, N subjects with at least one event [17]: 73 | First MACE, percentage of subjects with at least one event [17]: 7.2% | First MACE, N subjects with at least one event (Table 6, 0.5 mg semaglutide once weekly arm): 59 | Time to first MACE, hazard ratio (Table 6, 0.5 mg semaglutide once weekly arm vs its placebo, MACE = CV death, non-fatal MI, non-fatal stroke): 0.77 | First MACE, N subjects with at least one event (Table 6, 1.0 mg semaglutide once weekly arm): 49 | Time to first MACE, hazard ratio (Table 6, 1.0 mg semaglutide once weekly arm vs its placebo, MACE = CV death, non-fatal MI, non-fatal stroke): 0.71 | Effect on reducing cardiovascular disease (overall conclusion of the trial, more pronounced in some subgroups): surprisingly good effect on reducing cardiovascular disease

— patent publication US12569543B2, “Semaglutide in cardiovascular conditions” (Novo Nordisk A/S, priority 2016, dated 2026)
